# In paper PMC5703966, “Systemic clearance and brain distribution of carbazole-based cyanine compounds as Alzheimer’s disease drug candidates” (Scientific Reports, 2017):
# Values joined by “and” are separate entries in the source; they are usually repeats but may differ in a detail not shown here. Equal entries are not always repeated. Where two headings read alike, the source gives them in different places.
# Assays:
# OATP1B3 = target: T1, OATP1B3 (Homo sapiens, UniProt Q9NPD5); assay: OATP substrate identification, uptake in stably transfected HEK293 cells; conditions: 1 and 10 μM, 10 mins
# T1 sequence (Q9NPD5 1-702): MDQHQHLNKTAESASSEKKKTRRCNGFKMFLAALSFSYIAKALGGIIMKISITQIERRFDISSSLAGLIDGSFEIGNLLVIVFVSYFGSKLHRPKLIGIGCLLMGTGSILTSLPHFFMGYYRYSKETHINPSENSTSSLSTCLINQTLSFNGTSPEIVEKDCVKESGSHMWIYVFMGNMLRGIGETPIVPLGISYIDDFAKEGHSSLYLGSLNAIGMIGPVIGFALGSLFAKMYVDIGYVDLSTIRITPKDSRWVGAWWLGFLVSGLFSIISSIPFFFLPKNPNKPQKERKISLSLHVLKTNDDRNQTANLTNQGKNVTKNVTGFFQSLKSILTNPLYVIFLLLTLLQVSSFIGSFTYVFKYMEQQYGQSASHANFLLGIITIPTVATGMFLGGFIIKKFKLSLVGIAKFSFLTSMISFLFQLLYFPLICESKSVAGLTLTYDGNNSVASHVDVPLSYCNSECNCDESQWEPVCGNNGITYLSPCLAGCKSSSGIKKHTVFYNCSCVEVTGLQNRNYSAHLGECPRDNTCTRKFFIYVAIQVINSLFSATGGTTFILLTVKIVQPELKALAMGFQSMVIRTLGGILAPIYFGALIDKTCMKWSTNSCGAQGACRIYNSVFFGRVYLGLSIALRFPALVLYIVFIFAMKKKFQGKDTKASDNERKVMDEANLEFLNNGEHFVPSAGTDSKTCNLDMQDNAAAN
# Description: Daily changes of medium were performed and on the second day after seeding using medium containing 10 mM sodium butyrate.
# Stably transfected HEK cells and control vector-transfected HEK293 cells were first washed (3 × 1 mL) with prewarmed HBSS (pH 7.4) and then were incubated with 250 μL of HBSS containing compounds at concentrations of 1 and 10 μM. Cells were incubated for 10 mins at 37 °C for all experiments. After incubation, uptake was stopped by aspirating the incubation solution and washing each well 3 times with 200 μL of ice-old HBSS. The cells were lysed in 150 μL of 1 M NaOH for 30 mins, and then neutralized by adding equal volumes of 1 M HCl.
# The following equations (3 and 4) were used to calculate the uptake rates (U, pmol/mg/min) and the OATP1B1, OATP1B3, OATP2B1 and OATP1A2 uptake ratio (UR):3 U=Clysate/P×T 4 UR=UOATP1B1/1B3/2B1/1A2/UHEK293−MOCK where C lysate is the compound concentration in cell lysates. P is the protein concentration in cell lysates. T is the incubation time. U OATP1B1/1B3/2B1/1A2 is the uptake rate obtained in HEK293 stably transfected OATP1B1, OATP1B3, OATP2B1 or OATP1A2 transportation. U HEK293-MOCK is the uptake rate obtained in control vector-transfected HEK293 transportation.
# C57BL/6 mice = assay: Systemic clearance and pharmacokinetics after i.v. dose in C57BL/6 mice aging 2 months; type: in vivo, mouse; conditions: for Cl u, renal/GFR Ratio: GFR in mice 0.6 L/h per Kg; for dose dependence of kinetics: i.v. 0.2 mg/kg to 4 mg/kg in mice; for biliary clearance share of plasma clearance / remaining / hepatic clearance share of plasma clearance (Clhep/Clp) / renal clearance share of plasma clearance: mice; for Liver first pass elimination: mouse, in vivo; for Cl u, renal: total Cl renal normalised with unbound free fraction in blood
# Description: (§1) Male C57BL/6 and Bile duct-cannulated (BDC) mice (2 months, weighting: 25–30 g) obtained from Charles River, Inc. (Raleigh, NC) were used to study systemic clearance mechanism, in line with in vitro commercial samples from adolescent animals. Mice were fasted overnight and throughout the duration of the study ([…]), whereas access to water was provided ad libitum. SLOH and SLM were administered i.v. in PBS containing 5% DMSO via the tail vein (n = 5) at different dosages in a dosing volume of 5 mL/kg. Serial blood samples were collected before dosing and at 0.083, 0.167, 0.25, 0.5, 1, 2, 4, 8, 12 and 24 hours after dosing. Urine samples (0–12 and 12–24 hours; pooled 0–24 hours) were also collected after i.v. administration (1 mg/kg). Bile samples were collected at intervals of 0–4, 4–8 and 8–24 hours (pooled 0–24 hours) after dosing (1 mg/kg) to BDC mice.
# (§2) Parameters in animals were determined using non-compartmental analysis. […] Systemic Cl p was calculated as the i.v. dose divided by AUC0−∞ ^iv. The terminal rate constant (K el) was calculated by a linear regression of the log-linear concentration-time curve, and the terminal elimination t 1/2 was calculated as 0.693 divided by K el. Mean residence time from t = 0 to infinity (MRT 0−∞) was calculated as AUMC 0−∞ divided by AUC 0−∞. Apparent steady-state distribution volume (Vd ss) was determined as Cl p multiplied by MRT 0−∞. […] The Cl bile was derived as the amount of (in milligrams) of SLM or SLOH in the bile over the 24-hour interval postdose/AUC0-24h. The influx clearance into brain (K in) was calculated by using the amount of drug in the brain (homogenate) at time t (A, brain (t)) (corrected for the amount of drug remaining in the cerebral vasculature) divided by plasma exposure up to this time point (AUC, plasma (0 − t)). The C u,brain was calculated by A brain (homogenate, ng/g brain) divided by V u,brain (mL/g brain). The unbound ISF to plasma ratio (K puu,brain) was calculated by unbound AUC 0−t of ISF (ng/mL × min) divided by unbound AUC 0–t (ng/mL × min) of plasma.
# [1] = as above; type: in vivo, mouse; conditions: male, iv; for clearance / AUC(0-inf) / half-life / MRT inf / Vd: C57BL/6, mouse, plasma; for clearance: read-out: Cl p (converted); for MRT inf: read-out: MRT 0-∞; for Vd: read-out: Vd ss; for CL renal: mouse, urine and plasma, C57BL/6 mice, urine 0–24 h, read-out: Total Cl renal (converted)
# Description: as §1, §2
# [2] = 1 mg/kg, C57BL/6 mice 2 months, i.v. 1 mg/kg
SMILES,uptake by OATP1B3 transfected HEK293 versus WT cells (OATP1B3),"Cl u, renal/GFR Ratio (C57BL/6 mice)",dose dependence of kinetics (C57BL/6 mice),biliary clearance share of plasma clearance (C57BL/6 mice) [%],remaining / hepatic clearance share of plasma clearance (Clhep/Clp) (C57BL/6 mice) [%],renal clearance share of plasma clearance (C57BL/6 mice) [%],Liver first pass elimination (C57BL/6 mice) [% liver blood flow],"Cl u, renal (C57BL/6 mice)","clearance ([1]; 0.2 mg/kg, i.v. 0.2 mg/kg) [mL/min/kg]","clearance ([1]; 0.6 mg/kg, i.v. 0.6 mg/kg) [mL/min/kg]","clearance [1, 2] [mL/min/kg]","clearance ([1]; 2 mg/kg, i.v. 2.0 mg/kg) [mL/min/kg]","clearance ([1]; 4 mg/kg, i.v. 4.0 mg/kg) [mL/min/kg]",AUC(0-inf) ([1]; i.v. 0.2 mg/kg) [ng·h/mL],half-life ([1]; i.v. 0.2 mg/kg) [h],MRT inf ([1]; i.v. 0.2 mg/kg) [h],Vd ([1]; i.v. 0.2 mg/kg) [L/kg],AUC(0-inf) ([1]; i.v. 0.6 mg/kg) [ng·h/mL],half-life ([1]; i.v. 0.6 mg/kg) [h],MRT inf ([1]; i.v. 0.6 mg/kg) [h],further results
"COCCOCCn1c2ccccc2c2cc(/C=C/c3cc[n+](C)c4ccccc34)ccc21.[I-] [SLM, (E)-4-(2-(9-(2-(2-methoxyethoxy)ethyl)-9H-carbazol-3-yl)-vinyl)-1-methyl-quinolin-1-iumiodide]",no significant differences,1.90 ± 0.390,linearity kinetics dependent on dose,38.0,58.0,4.50,16.0,1.10 L/h per Kg and 1.10 ± 0.230 L/h per Kg,14.8,15.5,~11.8,12.5,13.8,240 ± 74,6.4 ± 4,3.5 ± 0.95,1.5 ± 0.63,580 ± 170,6 ± 1.1,3.7 ± 0.86,Vd ([1]; i.v. 0.6 mg/kg): 2.1 ± 0.54 L/kg; half-life ([1]; i.v. 1.0 mg/kg): 9.3 ± 3.3 h; MRT inf ([1]; i.v. 1.0 mg/kg): 3.2 ± 1 h; Vd ([1]; i.v. 1.0 mg/kg): 2.2 ± 0.61 L/kg; half-life ([1]; i.v. 2.0 mg/kg): 7.1 ± 0.55 h; MRT inf ([1]; i.v. 2.0 mg/kg): 2.5 ± 0.18 h; Vd ([1]; i.v. 2.0 mg/kg): 1.7 ± 0.55 L/kg; half-life ([1]; i.v. 4.0 mg/kg): 6.5 ± 2 h; MRT inf ([1]; i.v. 4.0 mg/kg): 3 ± 0.52 h; Vd ([1]; i.v. 4.0 mg/kg): 2.1 ± 0.2 L/kg; CL renal ([1]; i.v. 1 mg/kg): 0.667 mL/min/kg
"COCCOCCn1c2ccccc2c2cc(/C=C/c3cc[n+](CCO)c4ccccc34)ccc21 [SLOH, (E)-1-(2-hydroxyethyl)-4-(2-(9-(2-(2-metho-xyethoxy)-ethyl)-9H-carbazol-3-yl)vinyl) quinolin-1-ium chloride]",no significant differences,0.260 ± 0.0400^$$,linearity kinetics dependent on dose,34.0,64.0,1.10,16.0,0.160 L/h per Kg and 0.160 ± 0.0300^$$ L/h per Kg,15.5,12.8,~10.2,10.7,11.8,220 ± 61,6.9 ± 3.7,2.7 ± 1.5,1 ± 0.33,860 ± 310,5.5 ± 1.1,2.3 ± 0.78,"Cl p (C57BL/6 mice; C57BL/6 mice 2 months, i.v. 1 mg/kg, 1 mg/kg): 0.610 ± 0.140 L/h per Kg; Vd ([1]; i.v. 0.6 mg/kg): 1.2 ± 0.58 L/kg; half-life ([1]; i.v. 1.0 mg/kg): 5.8 ± 0.16 h; MRT inf ([1]; i.v. 1.0 mg/kg): 1.8 ± 0.1 h; Vd ([1]; i.v. 1.0 mg/kg): 0.83 ± 0.43 L/kg; half-life ([1]; i.v. 2.0 mg/kg): 4.6 ± 0.76 h; MRT inf ([1]; i.v. 2.0 mg/kg): 1.8 ± 0.17 h; Vd ([1]; i.v. 2.0 mg/kg): 1 ± 0.36 L/kg; half-life ([1]; i.v. 4.0 mg/kg): 5.8 ± 1.7 h; MRT inf ([1]; i.v. 4.0 mg/kg): 1.7 ± 0.08 h; Vd ([1]; i.v. 4.0 mg/kg): 1 ± 0.35 L/kg; CL renal ([1]; i.v. 1 mg/kg): 0.167 mL/min/kg"
